In brackets after ≈: the same amount, converted by molar mass.
Tests used:
Format in all cases: cell-based
[1] = test system: S. epidermidis ATCC 12228; assay: MIC by agar dilution, S. epidermidis ATCC 12228; conditions: Staphylococcus epidermidis, ATCC12228, 17 h; S. epidermidis ATCC 12228; agar dilution, Mueller-Hinton agar; read-out: Minimal Inhibitory Concentration (MIC)
Method in brief: (§1)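 Minimum inhibitory concentrations come from Mueller-Hinton agar plates with two-fold compound steps, inoculated at 10^6 CFU per ml and incubated 17±1 hours at 35°-37° C.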

Staph. aureus ATCC 6538P = assay: MIC by agar dilution, Staph. aureus ATCC 6538P; conditions: Staphylococcus aureus, ATCC6538P, 17 h; Staph. aureus ATCC 6538P; agar dilution, Mueller-Hinton agar; read-out: Minimal Inhibitory Concentration (MIC)
Method in brief: as §1

[2] = test system: Ps. aeruginosa NCTC 10490; assay: MIC by agar dilution, Ps. aeruginosa NCTC 10490; conditions: Pseudomonas aeruginosa, NCTC10490, 17 h, Mueller-Hinton agar, read-out: Minimal Inhibitory Concentration (MIC)
Method in brief: as §1

K. pneumoniae NCTC 9632 = assay: MIC by agar dilution, K. pneumoniae NCTC 9632; conditions: Klebsiella pneumoniae, NCTC9632, 17 h; K. pneumoniae NCTC 9632; agar dilution, Mueller-Hinton agar; read-out: Minimal Inhibitory Concentration (MIC)
Method in brief: as §1

Staph. aureus C-5216 = assay: MIC by agar dilution, Staph. aureus C-5216; conditions: Staphylococcus aureus, C5216, 17 h, Mueller-Hinton agar, read-out: Minimal Inhibitory Concentration (MIC)
Method in brief: as §1

Staph. aureus C-5113 = assay: MIC by agar dilution, Staph. aureus C-5113; conditions: Staphylococcus aureus, C5113, 17 h, Mueller-Hinton agar, read-out: Minimal Inhibitory Concentration (MIC)
Method in brief: as §1

E. coli No. 29 = assay: MIC by agar dilution, E. coli No. 29; conditions: Escherichia coli, 17 h; E. coli No. 29; agar dilution, Mueller-Hinton agar; read-out: Minimal Inhibitory Concentration (MIC)
Method in brief: as §1

Prov. stuartii IFO 12930 = assay: MIC by agar dilution, Prov. stuartii IFO 12930; conditions: Providencia stuartii, IFO12930, 17 h, Mueller-Hinton agar, read-out: Minimal Inhibitory Concentration (MIC)
Method in brief: as §1

Staph. aureus C-57 = assay: MIC by agar dilution, Staph. aureus C-57; conditions: Staphylococcus aureus, C57, 17 h, Mueller-Hinton agar, read-out: Minimal Inhibitory Concentration (MIC)
Method in brief: as §1

[3] = test system: Ser. marcescens IFO 12648; assay: MIC by agar dilution, Ser. marcescens IFO 12648; conditions: Serratia marcescens, IFO12648, 17 h; Ser. marcescens IFO 12648; agar dilution, Mueller-Hinton agar; read-out: Minimal Inhibitory Concentration (MIC)
Method in brief: as §1

B. subtilis ATCC 6633 = assay: MIC by agar dilution, B. subtilis ATCC 6633; conditions: Bacillus subtilis, ATCC6633, 17 h; B. subtilis ATCC 6633; agar dilution, Mueller-Hinton agar; read-out: Minimal Inhibitory Concentration (MIC)
Method in brief: as §1

Ent. cloacae IFO 13535 = assay: MIC by agar dilution, Ent. cloacae IFO 13535; conditions: Enterobacter cloacae, IFO13535, 17 h; Ent. cloacae IFO 13535; agar dilution, Mueller-Hinton agar; read-out: Minimal Inhibitory Concentration (MIC)
Method in brief: as §1

Ent. aerogenes IFO 12979 = assay: MIC by agar dilution, Ent. aerogenes IFO 12979; conditions: Klebsiella aerogenes, IFO12979, 17 h, Mueller-Hinton agar, read-out: Minimal Inhibitory Concentration (MIC)
Method in brief: as §1

M. morganii DY-1 = assay: MIC by agar dilution, M. morganii DY-1; conditions: Morganella morganii, DY1, 17 h; M. morganii DY-1; agar dilution, Mueller-Hinton agar; read-out: Minimal Inhibitory Concentration (MIC)
Method in brief: as §1

P. vulgaris NCTC 8313 = assay: MIC by agar dilution, P. vulgaris NCTC 8313; conditions: Proteus vulgaris, NCTC8313, 17 h; P. vulgaris NCTC 8313; agar dilution, Mueller-Hinton agar; read-out: Minimal Inhibitory Concentration (MIC)
Method in brief: as §1

[4] = test system: Ps. aeruginosa ATCC 10145; assay: MIC by agar dilution, Ps. aeruginosa ATCC 10145; conditions: Pseudomonas aeruginosa, ATCC10145, 17 h, Mueller-Hinton agar, read-out: Minimal Inhibitory Concentration (MIC)
Method in brief: as §1

E. coli DY-1 = assay: MIC by agar dilution, E. coli DY-1; conditions: Escherichia coli, DY1, 17 h; E. coli DY-1; agar dilution, Mueller-Hinton agar; read-out: Minimal Inhibitory Concentration (MIC)
Method in brief: as §1

Staph. aureus Smith = assay: MIC by agar dilution, Staph. aureus Smith; conditions: Staphylococcus aureus, 17 h, Mueller-Hinton agar, read-out: Minimal Inhibitory Concentration (MIC)
Method in brief: as §1

E. coli NIHJ JC-2 = assay: MIC by agar dilution, E. coli NIHJ JC-2; conditions: Escherichia coli, NIHJJC2, 17 h; E. coli NIHJ JC-2; agar dilution, Mueller-Hinton agar; read-out: Minimal Inhibitory Concentration (MIC)
Method in brief: as §1

Ps. aeruginosa DY-2 = assay: MIC by agar dilution, Ps. aeruginosa DY-2; conditions: Pseudomonas aeruginosa, DY2, 17 h; Ps. aeruginosa DY-2; agar dilution, Mueller-Hinton agar; read-out: Minimal Inhibitory Concentration (MIC)
Method in brief: as §1

CON=C(C(=O)NC1C(=O)N2C(C(=O)[O-])=C(C[n+]3ccn4c(C(=O)O)ccc4c3)CSC12)c1csc(N)n1 (stereo not drawn) [Ex. 17, 7-β-[(Z)-2-(2-aminothiazol-4-yl)-2-methoxyiminoacetamido]-3-(6-carboxypyrrolo[1,2-a]pyrazinium-2-yl)methyl-3-cephem-4-carboxylate]
MIC [1]: 0.1 µg/mL (≈ 0.179 µM)
MIC (Staph. aureus ATCC 6538P): 0.39 µg/mL (≈ 0.699 µM)
MIC [2]: 0.2 µg/mL (≈ 0.359 µM)
MIC (K. pneumoniae NCTC 9632): 0.025 µg/mL (≈ 0.0448 µM)
MIC (Staph. aureus C-5216): 1.56 µg/mL (≈ 2.8 µM)
MIC (Staph. aureus C-5113): 1.56 µg/mL (≈ 2.8 µM)
MIC (E. coli No. 29): 0.012 µg/mL (≈ 0.0215 µM)
MIC (Prov. stuartii IFO 12930): ≤ 0.006 µg/mL
MIC (Staph. aureus C-57): 25 µg/mL (≈ 44.8 µM)
MIC [3]: 0.05 µg/mL (≈ 0.0897 µM)
MIC (B. subtilis ATCC 6633): 0.1 µg/mL (≈ 0.179 µM)
MIC (Ent. cloacae IFO 13535): 0.39 µg/mL (≈ 0.699 µM)
MIC (Ent. aerogenes IFO 12979): 0.025 µg/mL (≈ 0.0448 µM)
MIC (M. morganii DY-1): 0.025 µg/mL (≈ 0.0448 µM)
MIC (P. vulgaris NCTC 8313): 0.012 µg/mL (≈ 0.0215 µM)
MIC [4]: 1.56 µg/mL (≈ 2.8 µM)
MIC (E. coli DY-1): 0.025 µg/mL (≈ 0.0448 µM)
MIC (Staph. aureus Smith): 0.78 µg/mL (≈ 1.4 µM)
MIC (E. coli NIHJ JC-2): 0.025 µg/mL (≈ 0.0448 µM)
MIC (Ps. aeruginosa DY-2): 3.13 µg/mL (≈ 5.61 µM)

Nc1nc(C(=NOCC(=O)O)C(=O)NC2C(=O)N3C(C(=O)[O-])=C(C[n+]4ccn5c(CO)ccc5c4)CSC23)cs1 (stereo not drawn) [Ex. 23, 7-β-[(Z)-2-(2-aminothiazol-4-yl)-2-carboxymethoxyiminoacetamido]-3-(6-hydroxymethylpyrrolo[1,2-a]pyrazinium-2-yl)methyl-3-cephem-4-carboxylate]
MIC [1]: 0.39 µg/mL (≈ 0.664 µM)
MIC (Staph. aureus ATCC 6538P): 1.56 µg/mL (≈ 2.65 µM)
MIC [2]: 0.39 µg/mL (≈ 0.664 µM)
MIC (K. pneumoniae NCTC 9632): 0.012 µg/mL (≈ 0.0204 µM)
MIC (Staph. aureus C-5216): 12.5 µg/mL (≈ 21.3 µM)
MIC (Staph. aureus C-5113): 6.25 µg/mL (≈ 10.6 µM)
MIC (E. coli No. 29): 0.025 µg/mL (≈ 0.0425 µM)
MIC (Prov. stuartii IFO 12930): ≤ 0.006 µg/mL
MIC (Staph. aureus C-57): 100 µg/mL (≈ 170 µM)
MIC [3]: 0.012 µg/mL (≈ 0.0204 µM)
MIC (B. subtilis ATCC 6633): 0.78 µg/mL (≈ 1.33 µM)
MIC (Ent. cloacae IFO 13535): 0.2 µg/mL (≈ 0.34 µM)
MIC (Ent. aerogenes IFO 12979): 0.012 µg/mL (≈ 0.0204 µM)
MIC (M. morganii DY-1): 0.012 µg/mL (≈ 0.0204 µM)
MIC (P. vulgaris NCTC 8313): ≤ 0.006 µg/mL
MIC [4]: 0.78 µg/mL (≈ 1.33 µM)
MIC (E. coli DY-1): 0.025 µg/mL (≈ 0.0425 µM)
MIC (Staph. aureus Smith): 6.25 µg/mL (≈ 10.6 µM)
MIC (E. coli NIHJ JC-2): 0.025 µg/mL (≈ 0.0425 µM)
MIC (Ps. aeruginosa DY-2): 3.13 µg/mL (≈ 5.33 µM)

Nc1nc(C(=NOCF)C(=O)NC2C(=O)N3C(C(=O)[O-])=C(C[n+]4ccn5c(CO)ccc5c4)CSC23)cs1 (stereo not drawn) [Ex. 22, 7-β-[(Z)-2-(2-aminothiazol-4-yl)-2-fluoromethoxyiminoacetamido]-3-(6-hydroxymethylpyrrolo[1,2-a]pyrazinium-2-yl)methyl-3-cephem-4-carboxylate]
MIC [1]: 0.025 µg/mL (≈ 0.0445 µM)
MIC (Staph. aureus ATCC 6538P): 0.2 µg/mL (≈ 0.356 µM)
MIC [2]: 0.1 µg/mL (≈ 0.178 µM)
MIC (K. pneumoniae NCTC 9632): ≤ 0.006 µg/mL
MIC (Staph. aureus C-5216): 0.78 µg/mL (≈ 1.39 µM)
MIC (Staph. aureus C-5113): 1.56 µg/mL (≈ 2.78 µM)
MIC (E. coli No. 29): ≤ 0.006 µg/mL
MIC (Prov. stuartii IFO 12930): ≤ 0.006 µg/mL
MIC (Staph. aureus C-57): 50 µg/mL (≈ 89 µM)
MIC [3]: ≤ 0.006 µg/mL
MIC (B. subtilis ATCC 6633): 0.1 µg/mL (≈ 0.178 µM)
MIC (Ent. cloacae IFO 13535): 0.05 µg/mL (≈ 0.089 µM)
MIC (Ent. aerogenes IFO 12979): ≤ 0.006 µg/mL
MIC (M. morganii DY-1): ≤ 0.006 µg/mL
MIC (P. vulgaris NCTC 8313): ≤ 0.006 µg/mL
MIC [4]: 0.39 µg/mL (≈ 0.694 µM)
MIC (E. coli DY-1): ≤ 0.006 µg/mL
MIC (Staph. aureus Smith): 0.78 µg/mL (≈ 1.39 µM)
MIC (E. coli NIHJ JC-2): ≤ 0.006 µg/mL
MIC (Ps. aeruginosa DY-2): 1.56 µg/mL (≈ 2.78 µM)

CO/N=C(\C(=O)N[C@@H]1C(=O)N2C(C(=O)[O-])=C(C[n+]3ccn4ccc(CO)c4c3)CS[C@H]12)c1nc(N)sc1Cl [Ex. 54, 7-β-[(Z)-2-(2-amino-5-chlorothiazol-4-yl)-2-methoxyiminoacetamido]-3-(8-hydroxymethylpyrrolo[1,2-a]-pyrazinium-2-yl)methyl-3-cephem-4-carboxylate]
MIC [1]: 0.05 µg/mL (≈ 0.0865 µM)
MIC (Staph. aureus ATCC 6538P): 0.39 µg/mL (≈ 0.675 µM)
MIC [2]: 0.78 µg/mL (≈ 1.35 µM)
MIC (K. pneumoniae NCTC 9632): 0.78 µg/mL (≈ 1.35 µM)
MIC (Staph. aureus C-5216): 1.56 µg/mL (≈ 2.7 µM)
MIC (Staph. aureus C-5113): 0.78 µg/mL (≈ 1.35 µM)
MIC (E. coli No. 29): 0.05 µg/mL (≈ 0.0865 µM)
MIC (Prov. stuartii IFO 12930): 0.025 µg/mL (≈ 0.0433 µM)
MIC (Staph. aureus C-57): 6.25 µg/mL (≈ 10.8 µM)
MIC [3]: 0.39 µg/mL (≈ 0.675 µM)
MIC (B. subtilis ATCC 6633): 0.2 µg/mL (≈ 0.346 µM)
MIC (Ent. cloacae IFO 13535): 0.78 µg/mL (≈ 1.35 µM)
MIC (Ent. aerogenes IFO 12979): 0.1 µg/mL (≈ 0.173 µM)
MIC (M. morganii DY-1): 0.1 µg/mL (≈ 0.173 µM)
MIC (P. vulgaris NCTC 8313): 0.05 µg/mL (≈ 0.0865 µM)
MIC [4]: 3.13 µg/mL (≈ 5.41 µM)
MIC (E. coli DY-1): 0.025 µg/mL (≈ 0.0433 µM)
MIC (Staph. aureus Smith): 0.78 µg/mL (≈ 1.35 µM)
MIC (E. coli NIHJ JC-2): 0.39 µg/mL (≈ 0.675 µM)
MIC (Ps. aeruginosa DY-2): 12.5 µg/mL (≈ 21.6 µM)
